Measurements from paper doi:10.1101/2021.06.18.449075v2, “Understanding the mechanism of monoADP ribosylation in OsSRT1 and its linkage to DNA repair system under stress conditions” (biorxiv, 2021).
Where two headings read alike, the source gives them in different places.

How the values were obtained:
OsSRT1 [1] = molecular target: T1, OsSRT1 (Oryza sativa, UniProt B8ARK7); assay: auto-ADP-ribosylation, anti-biotin western blot; type: biochemical
T1 construct: gene SRT1; OsSRT1 gene (483 aa) in pET30a (BamHI/EcoRI), His-tagged, E. coli BL21(DE3), HisTrap purified; tag removal not mentioned
T1 sequence (B8ARK7 1-483): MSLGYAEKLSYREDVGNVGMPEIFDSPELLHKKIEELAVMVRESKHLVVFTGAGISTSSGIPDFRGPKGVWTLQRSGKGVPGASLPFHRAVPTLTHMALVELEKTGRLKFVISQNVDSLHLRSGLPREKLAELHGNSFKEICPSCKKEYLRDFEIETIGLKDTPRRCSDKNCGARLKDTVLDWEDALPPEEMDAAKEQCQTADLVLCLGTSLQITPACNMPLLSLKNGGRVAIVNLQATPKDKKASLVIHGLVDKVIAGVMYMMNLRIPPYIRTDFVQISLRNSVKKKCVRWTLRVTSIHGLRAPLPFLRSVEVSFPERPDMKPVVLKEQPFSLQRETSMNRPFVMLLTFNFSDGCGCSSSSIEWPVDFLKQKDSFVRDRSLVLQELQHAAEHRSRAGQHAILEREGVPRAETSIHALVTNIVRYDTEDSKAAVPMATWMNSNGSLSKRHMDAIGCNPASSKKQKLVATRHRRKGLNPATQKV

OsSRT1 [2] = molecular target: T1, OsSRT1; assay: auto-ADP-ribosylation, anti-biotin dot blot, Michaelis-Menten fit; type: biochemical; conditions: 6 nM OsSRT1, 0-100 µM Bio-NAD+, pH 7.5, 25°C; auto-ADPr without H3; labelled compound

Nc1ncnc2c1ncn2[C@@H]1O[C@H](COP(=O)(O)OP(=O)(O)OC[C@H]2OC(O)[C@H](O)[C@@H]2O)[C@@H](O)[C@H]1O (stereo partly shown) [ADP-ribose]
IC50 (OsSRT1 [1]; auto-ADPr with Bio-NAD+, standard buffer 50 mM Tris pH 7.5, 150 mM NaCl, 10 mM DTT, 75 μM NAD+, 40 μM Bio-NAD+, 25°C, 1 h, product inhibition): 18 ± 4 µM

NC(=O)c1cccnc1 [nicotinamide]
IC50 (OsSRT1 [1]): 26 ± 2 µM

O=C(O)c1cccnc1 [nicotinic acid]
IC50 (OsSRT1 [1]): 32 ± 4 µM

Bio-NAD^+
Km (OsSRT1 [2]): 37.4 ± 4 µM
